In patent US20130263298A1, “MODELS FOR DIAGNOSIS, PREVENTION AND TREATMENT OF ALZHEIMER'S DISEASE” (INDIGO CAPITAL GROUP LLC, priority 2012, published 2013):

Key:
GCLc enzyme = experiment: Western Blot test for GCLc enzyme levels in supplement-fed flies; type: in vivo, Drosophila melanogaster; settings: optimal dose (3x), 15 days feeding, compared to the control
Description: For the phase-III of the experiment, a new set of Drosophila melanogaster were bred for Western blot and Glutathione assays. […] Single, triple, and six times strength for each of the three supplements were added to 25 flies each in vials along with control for 15 days. The flies were then transferred to perform the Western Blot test to check for GCLc enzyme levels for each group. […] Details of the procedure for Western Blot are mentioned below. A western blot is a method that allows investigators to detect a specific protein in a given sample of tissue. The flies were frozen with dry ice, then standardized, lysis buffer added, homogenized and then centrifuged. The proteins were separated by their molecular weight ([…]) by SDS-PAGE, polyacrylamide gel electrophoresis. An 8% acryl amide gel was used. Smaller proteins migrate faster. Samples were loaded into the wells and a voltage of 150 Volts was applied. The proteins were transferred to a PVDF sheet of special blotting paper. The uniformity was checked by the Coomassie stain. […] A digital image of the western blot was captured using fluorescence and analysed.

Glutathione = experiment: Fluorometric Glutathione Assay (monochlorobimane) in supplement-fed flies; type: in vivo, Drosophila melanogaster; settings: optimal dose (3x), 15 days feeding, compared to the control
Description: For the phase-III of the experiment, a new set of Drosophila melanogaster were bred for Western blot and Glutathione assays. […] Single, triple, and six times strength for each of the three supplements were added to 25 flies each in vials along with control for 15 days. The flies were then transferred to perform the Western Blot test to check for GCLc enzyme levels for each group. […] Glutathione Detection Kit from BioVision's ApoGSH was used for an in vitro assay for detection of total glutathione changes in tissue samples. The assay used monochlorobimane (MCB), a dye that appears to form an adduct exclusively with glutathione. […] The reaction was catalysed by glutathione S-transferase. Thus, the amount of total glutathione was detected using a fluorimeter. In an embodiments of the present invention, the kit contents included Cell Lysis Buffer—25 ml, Monochlorobimane (25 mM)—200 μl, GST Reagent (50 U/ml)-200 μl, and GSH Standard (1 mg; MW: 307)—1 Vial. Monochlorobimane was dissolved in DMSO and warmed at a temperature above 18° C. for use. After opening the kit, MCB, GST, and GSH were stored at −20° C. and Cell Lysis Buffer was stored at 4° C. The GSH standard was reconstituted with 100 μl dH2O to generate 10 μg/μl standard stock solution. […] Reading: […] The sample readings were applied to the standard curve to calculate total glutathione amount in each sample. […]

Drosophila melanogaster = experiment: Phase-I lifespan of yellow-white Drosophila fed dietary supplements; type: in vivo; settings: male yellow-white Drosophila, supplement at optimal RDA in diet; for increase in mean survival / longevity: vs. control (36 days)
Description: For the phase-I of the study, approximately 1200 male yellow-white Drosophila were bred, isolated and monitored on a daily basis. About 100 fruit flies were tested for each supplement, divided into four vials containing 25 flies each.
In an embodiment of the present invention, a mathematical formula was developed by the inventor for an optimal dosage: Recommended daily human dosage of each supplement per day, divided by 1,000,000 (average weight of a person 50 kg, average weight of 100 flies […]), multiplied by 2 as tubes are used initially for two days, multiplied by 100 as it is assumed only 1% of the food is consumed, multiplied by 4 as bulk food was made for 1 week/8 days. According to the formula, if 100 mg is the recommended human daily dosage of a supplement, the fly dose is 0.08 mg. This was considered optimal required daily allowance (RDA). The supplements were measured on the milligram gemological weighing machine and combined with the regular Drosophila diet (Carolina 424 media, yeast, water) in a temperature controlled insect culture incubator under optimal conditions. 50% survival was calculated by counting the flies that died and transferring the live flies into a different vial with newly made media every two days and near the end, every day. The observations were recorded, calculated, graphed and analysed. Two tailed t-tests were performed to test for statistical significance.

Structure (SMILES)	increase in GCLc enzyme (GCLc enzyme)	increase in glutathione (Glutathione)	increase in mean survival / longevity (Drosophila melanogaster)	mean survival (Drosophila melanogaster; control 36 days)
Oc1ccc(C=Cc2cc(O)cc(O)c2)cc1 [Resveratrol]	1%	100%	39%	50 days
COC1=C(OC)C(=O)C(C/C=C(\C)CC/C=C(\C)CC/C=C(\C)CC/C=C(\C)CC/C=C(\C)CC/C=C(\C)CC/C=C(\C)CC/C=C(\C)CC/C=C(\C)CCC=C(C)C)=C(C)C1=O [Coenzyme Q10]	–	–	11%	–
N[C@@H](CCC(=O)N[C@@H](CS)C(=O)NCC(=O)O)C(=O)O [Glutathione]	7%	154%	11%	–
CC(=O)N[C@@H](CS)C(=O)O [NAC, N acetyl cysteine]	–	–	28%	–
